Measurements: patent US11547697B2, “Heterocyclic compounds and uses thereof” (MILLENNIUM PHARMACEUTICALS, INC., priority 2009, dated 2023)
Like-named read-outs stand apart in the source and are kept apart here.

Legend:
Type in all cases: biochemical
[1] = molecular target: p110β/p85α (Homo sapiens (Human), UniProt P42338); assay: PI 3-Kinase (human) HTRF assay, p110β/p85α; settings: read-out: PI3K β IC50
[2] = molecular target: p110γ (Homo sapiens (Human), UniProt P48736); assay: PI 3-Kinase (human) HTRF assay, p110γ; settings: read-out: PI3K γ IC50
Chain of p110γ (P48736 whole entry): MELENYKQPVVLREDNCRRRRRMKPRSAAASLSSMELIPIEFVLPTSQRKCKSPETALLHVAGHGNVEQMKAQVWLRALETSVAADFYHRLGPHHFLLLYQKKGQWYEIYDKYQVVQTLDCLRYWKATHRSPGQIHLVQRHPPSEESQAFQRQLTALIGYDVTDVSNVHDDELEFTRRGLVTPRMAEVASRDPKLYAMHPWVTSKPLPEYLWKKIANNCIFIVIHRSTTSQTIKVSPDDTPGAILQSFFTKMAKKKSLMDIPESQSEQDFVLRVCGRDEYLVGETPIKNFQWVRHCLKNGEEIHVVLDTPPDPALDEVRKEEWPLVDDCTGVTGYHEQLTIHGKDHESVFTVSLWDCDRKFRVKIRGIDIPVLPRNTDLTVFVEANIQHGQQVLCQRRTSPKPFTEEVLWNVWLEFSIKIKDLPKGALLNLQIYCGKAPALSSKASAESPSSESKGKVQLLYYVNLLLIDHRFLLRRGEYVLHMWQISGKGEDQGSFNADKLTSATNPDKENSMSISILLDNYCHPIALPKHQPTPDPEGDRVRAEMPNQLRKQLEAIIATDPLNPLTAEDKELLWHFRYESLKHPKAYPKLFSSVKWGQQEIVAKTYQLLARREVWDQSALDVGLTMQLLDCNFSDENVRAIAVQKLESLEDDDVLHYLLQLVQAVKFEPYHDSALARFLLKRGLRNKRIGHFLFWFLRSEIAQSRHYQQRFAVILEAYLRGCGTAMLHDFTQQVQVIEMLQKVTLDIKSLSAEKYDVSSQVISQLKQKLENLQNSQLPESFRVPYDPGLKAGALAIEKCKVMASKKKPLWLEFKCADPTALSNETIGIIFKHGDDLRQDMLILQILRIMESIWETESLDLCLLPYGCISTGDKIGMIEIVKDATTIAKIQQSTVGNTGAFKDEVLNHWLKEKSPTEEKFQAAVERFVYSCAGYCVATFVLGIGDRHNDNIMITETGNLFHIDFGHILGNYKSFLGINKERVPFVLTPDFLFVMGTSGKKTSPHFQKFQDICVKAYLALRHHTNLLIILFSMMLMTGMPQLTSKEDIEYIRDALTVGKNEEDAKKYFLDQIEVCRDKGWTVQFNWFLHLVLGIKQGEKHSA
Procedure: (§1) An exemplary system is PI 3-Kinase (human) HTRF™ Assay from Upstate. […] Briefly, the assay is a time resolved FRET assay that indirectly measures PIP3 product formed by the activity of a PI3-K. The kinase reaction is performed in a microtitre plate (e.g., a 384 well microtitre plate). The total reaction volume is approximately 20 ul per well. In the first step, each well receives 2 ul of test compound in 20% dimethylsulphoxide resulting in a 2% DMSO final concentration. Next, approximately 14.5 ul of a kinase/PIP2 mixture (diluted in 1× reaction buffer) is added per well for a final concentration of 0.25-0.3 ug/ml kinase and 10 μM PIP2. The plate is sealed and incubated for 15 minutes at room temperature. To start the reaction, 3.5 ul of ATP (diluted in 1× reaction buffer) is added per well for a final concentration of 10 μM ATP. The plate is sealed and incubated for 1 hour at room temperature. The reaction is stopped by adding 5 ul of Stop Solution per well and then 5 ul of Detection Mix is added per well. The plate is sealed, incubated for 1 hour at room temperature, and then read on an appropriate plate reader. Data is analyzed and IC50s are generated using GraphPad Prism 5. […] For PI3K α, β, δ, and γ, the nM concentration of inhibitor to reach IC50 is provided.

[3] = molecular target: p110δ/p85α (Homo sapiens (Human), UniProt O00329); assay: PI 3-Kinase (human) HTRF assay, p110δ/p85α; settings: read-out: PI3K δ IC50
Chain of p110δ/p85α (O00329 whole entry): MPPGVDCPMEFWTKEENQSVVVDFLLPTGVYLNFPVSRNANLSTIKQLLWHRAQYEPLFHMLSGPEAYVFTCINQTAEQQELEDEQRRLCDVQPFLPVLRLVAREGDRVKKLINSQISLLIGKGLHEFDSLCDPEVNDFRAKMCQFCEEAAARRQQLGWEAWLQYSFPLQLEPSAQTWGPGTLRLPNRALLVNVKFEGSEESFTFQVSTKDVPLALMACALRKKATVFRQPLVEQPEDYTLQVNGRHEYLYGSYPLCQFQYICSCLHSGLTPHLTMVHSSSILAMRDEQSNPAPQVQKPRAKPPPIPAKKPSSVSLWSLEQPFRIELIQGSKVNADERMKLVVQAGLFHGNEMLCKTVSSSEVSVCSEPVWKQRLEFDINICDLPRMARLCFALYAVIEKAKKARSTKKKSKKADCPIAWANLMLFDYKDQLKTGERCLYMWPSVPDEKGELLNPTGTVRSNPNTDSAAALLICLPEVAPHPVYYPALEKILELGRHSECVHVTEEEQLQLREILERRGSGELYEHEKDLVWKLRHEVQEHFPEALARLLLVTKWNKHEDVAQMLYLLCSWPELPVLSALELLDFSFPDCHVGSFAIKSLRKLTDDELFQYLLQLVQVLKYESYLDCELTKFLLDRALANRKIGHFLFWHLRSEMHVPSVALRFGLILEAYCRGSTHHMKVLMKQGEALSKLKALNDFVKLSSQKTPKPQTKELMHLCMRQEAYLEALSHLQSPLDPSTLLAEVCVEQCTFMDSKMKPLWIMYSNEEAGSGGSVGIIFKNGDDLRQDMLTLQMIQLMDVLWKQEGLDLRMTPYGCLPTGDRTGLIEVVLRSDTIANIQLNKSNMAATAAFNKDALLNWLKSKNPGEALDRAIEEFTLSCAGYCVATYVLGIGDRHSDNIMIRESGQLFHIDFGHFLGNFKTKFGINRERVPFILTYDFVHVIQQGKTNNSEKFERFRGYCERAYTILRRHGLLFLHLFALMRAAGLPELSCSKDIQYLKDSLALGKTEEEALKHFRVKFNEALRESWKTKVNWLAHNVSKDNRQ
Chain of p110δ/p85α (P27986 whole entry partner): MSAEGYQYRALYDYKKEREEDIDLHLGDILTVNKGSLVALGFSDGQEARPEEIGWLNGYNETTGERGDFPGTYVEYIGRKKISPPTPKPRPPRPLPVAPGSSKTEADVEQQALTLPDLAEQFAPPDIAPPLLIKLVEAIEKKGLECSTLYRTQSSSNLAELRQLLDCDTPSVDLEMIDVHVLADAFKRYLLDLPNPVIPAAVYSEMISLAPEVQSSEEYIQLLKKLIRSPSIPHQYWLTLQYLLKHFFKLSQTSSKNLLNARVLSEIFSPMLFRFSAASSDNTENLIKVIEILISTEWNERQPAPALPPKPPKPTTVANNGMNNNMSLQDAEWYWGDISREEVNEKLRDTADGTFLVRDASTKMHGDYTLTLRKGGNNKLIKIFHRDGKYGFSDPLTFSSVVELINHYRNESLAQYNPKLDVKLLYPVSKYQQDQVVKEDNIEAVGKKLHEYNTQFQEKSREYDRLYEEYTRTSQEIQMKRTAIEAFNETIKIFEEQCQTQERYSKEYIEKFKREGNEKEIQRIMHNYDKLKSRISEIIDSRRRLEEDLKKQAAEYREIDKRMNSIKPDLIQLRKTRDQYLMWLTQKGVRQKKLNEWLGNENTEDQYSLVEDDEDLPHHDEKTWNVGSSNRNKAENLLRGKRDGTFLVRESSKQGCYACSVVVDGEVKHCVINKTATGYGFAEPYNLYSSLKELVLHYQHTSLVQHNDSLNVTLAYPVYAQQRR

[4] = molecular target: p110α/p85α (Homo sapiens (Human), UniProt P42336); assay: PI 3-Kinase (human) HTRF assay, p110α/p85α; settings: read-out: PI3K α IC50
Chain of p110α/p85α (P42336 whole entry): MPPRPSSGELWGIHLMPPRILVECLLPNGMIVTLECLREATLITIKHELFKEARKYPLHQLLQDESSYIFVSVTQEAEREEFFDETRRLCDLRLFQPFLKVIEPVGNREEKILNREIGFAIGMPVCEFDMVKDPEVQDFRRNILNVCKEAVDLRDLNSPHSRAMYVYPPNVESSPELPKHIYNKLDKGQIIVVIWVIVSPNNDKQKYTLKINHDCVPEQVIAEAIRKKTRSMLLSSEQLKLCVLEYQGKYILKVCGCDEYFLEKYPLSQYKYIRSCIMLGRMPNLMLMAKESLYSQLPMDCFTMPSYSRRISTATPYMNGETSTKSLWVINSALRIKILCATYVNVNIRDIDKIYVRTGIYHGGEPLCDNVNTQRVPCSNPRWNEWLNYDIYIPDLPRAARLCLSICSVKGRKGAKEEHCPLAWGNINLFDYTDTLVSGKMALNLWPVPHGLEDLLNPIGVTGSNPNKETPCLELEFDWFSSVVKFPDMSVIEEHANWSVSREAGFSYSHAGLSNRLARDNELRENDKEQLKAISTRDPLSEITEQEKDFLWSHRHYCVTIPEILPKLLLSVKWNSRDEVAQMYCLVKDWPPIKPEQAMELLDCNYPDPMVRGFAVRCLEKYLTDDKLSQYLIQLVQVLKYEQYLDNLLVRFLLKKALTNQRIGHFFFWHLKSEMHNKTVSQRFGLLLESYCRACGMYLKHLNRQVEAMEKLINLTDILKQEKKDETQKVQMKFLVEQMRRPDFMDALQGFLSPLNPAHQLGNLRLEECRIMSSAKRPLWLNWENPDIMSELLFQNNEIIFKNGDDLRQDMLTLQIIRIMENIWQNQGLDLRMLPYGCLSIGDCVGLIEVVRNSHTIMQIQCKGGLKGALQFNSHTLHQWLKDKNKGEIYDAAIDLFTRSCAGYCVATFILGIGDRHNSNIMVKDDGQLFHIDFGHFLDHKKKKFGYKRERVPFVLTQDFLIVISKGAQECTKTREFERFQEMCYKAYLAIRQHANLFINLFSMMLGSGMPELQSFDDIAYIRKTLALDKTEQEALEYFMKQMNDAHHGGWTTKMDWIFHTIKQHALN
Chain of p110α/p85α (P27986 whole entry partner): as the sequence (P27986 whole entry partner) above
Procedure: as §1

Chain of p110β/p85α (P42338 whole entry): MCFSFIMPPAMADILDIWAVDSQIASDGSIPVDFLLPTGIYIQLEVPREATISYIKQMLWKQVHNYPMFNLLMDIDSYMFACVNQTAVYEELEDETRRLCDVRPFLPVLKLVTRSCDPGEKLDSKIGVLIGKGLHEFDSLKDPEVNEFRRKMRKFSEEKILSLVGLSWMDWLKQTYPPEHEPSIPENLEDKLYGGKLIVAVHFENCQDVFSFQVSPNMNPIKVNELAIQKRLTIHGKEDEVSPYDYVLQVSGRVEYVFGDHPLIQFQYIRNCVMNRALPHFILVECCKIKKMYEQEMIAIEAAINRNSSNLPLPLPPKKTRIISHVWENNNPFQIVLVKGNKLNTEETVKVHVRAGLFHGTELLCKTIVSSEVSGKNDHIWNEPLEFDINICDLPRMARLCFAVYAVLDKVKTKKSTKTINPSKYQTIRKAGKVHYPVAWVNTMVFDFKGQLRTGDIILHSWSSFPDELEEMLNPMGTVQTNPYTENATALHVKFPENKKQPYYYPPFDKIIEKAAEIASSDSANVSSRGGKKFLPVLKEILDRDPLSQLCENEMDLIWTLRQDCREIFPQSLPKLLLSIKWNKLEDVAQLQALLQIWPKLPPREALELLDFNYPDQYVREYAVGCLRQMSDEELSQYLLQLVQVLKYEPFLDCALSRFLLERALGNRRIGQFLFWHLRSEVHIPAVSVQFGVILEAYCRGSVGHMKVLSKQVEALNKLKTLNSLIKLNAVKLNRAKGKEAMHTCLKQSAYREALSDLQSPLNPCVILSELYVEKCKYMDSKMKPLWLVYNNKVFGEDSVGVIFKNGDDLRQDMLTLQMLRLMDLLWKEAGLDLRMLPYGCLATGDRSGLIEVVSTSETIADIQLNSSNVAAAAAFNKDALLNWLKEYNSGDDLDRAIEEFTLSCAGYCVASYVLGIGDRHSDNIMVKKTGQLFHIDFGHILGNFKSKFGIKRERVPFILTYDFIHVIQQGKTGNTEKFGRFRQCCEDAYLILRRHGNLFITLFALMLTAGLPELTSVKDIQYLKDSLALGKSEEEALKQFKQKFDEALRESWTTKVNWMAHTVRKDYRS
Chain of p110β/p85α (P27986 whole entry partner): as the sequence (P27986 whole entry partner) above

SMILES	IC50 [1] [µM]	IC50 [2] [µM]	IC50 [3] [µM]	IC50 [4] [µM]	IC50 ([1]; in vitro) [µM]	IC50 ([2]; in vitro) [µM]	IC50 ([3]; in vitro) [µM]	IC50 ([4]; in vitro) [µM]
C[C@H]1CN(c2cnc3ccc(-c4ccc5oc(N)nc5c4)cc3n2)CCN1 [compound 178]	< 0.1	< 1	< 1	< 0.1	–	–	–	–
CC(C)(C)N1CCN(C(=O)c2cnc3ccc(-c4ccc5oc(N)nc5c4)cn23)CC1 [compound 191]	< 10	< 10	< 10	< 0.1	–	–	–	–
NCC(=O)N1CCN(c2cnc3ccc(-c4ccc5oc(N)nc5c4)cc3n2)CC1 [compound 192]	< 1	< 1	< 1	< 0.1	–	–	–	–
COC(=O)N1CCN(c2cnc3ccc(-c4ccc5oc(N)nc5c4)cc3n2)CC1 [compound 193]	< 1	< 0.1	< 10	< 0.1	–	–	–	–
Nc1nc2cc(-c3ccc4ncc(C(=O)N5CCC5)n4c3)ccc2o1 [compound 197]	–	–	–	–	< 10	< 0.1	< 10	< 0.1
CS(=O)(=O)CCN1CCN(C(=O)c2cnc3ccc(-c4ccc5oc(N)nc5c4)cn23)CC1 [compound 198]	–	–	–	–	< 10	< 1	< 10	< 0.1
CS(=O)(=O)CCN1CCC(NC(=O)c2cnc3ccc(-c4ccc5oc(N)nc5c4)cn23)CC1 [compound 199]	–	–	–	–	< 10	< 0.1	< 0.1	< 0.1
CN1CCC(NC(=O)c2cnc3ccc(-c4ccc5oc(N)nc5c4)nn23)CC1 [compound 203]	–	–	–	–	< 0.1	< 0.1	< 1	< 0.1
CNC(=O)C1CN(c2cnc3ccc(-c4ccc5oc(N)nc5c4)cc3n2)C1 [compound 214]	–	–	–	–	< 0.1	< 1	< 10	< 0.1
Nc1nc2cc(-c3ccc4ncc(N5CC(C(=O)NC6CC6)C5)nc4c3)ccc2o1 [compound 215]	–	–	–	–	< 1	< 1	< 10	< 0.1
Nc1nc2cc(-c3ccc4ncc(N5CC(O)C5)nc4c3)ccc2o1 [compound 216]	–	–	–	–	< 1	< 0.1	< 10	< 0.1
CN(C)CC(=O)N1CCN(c2cnc3ccc(-c4ccc5oc(N)nc5c4)cc3n2)CC1 [compound 217]	–	–	–	–	< 1	< 1	< 1	< 0.1
CCN(CC)CCNc1cnc2ccc(-c3ccc4oc(N)nc4c3)cc2n1 [compound 218]	–	–	–	–	< 1	< 10	< 1	< 1
Nc1nc2cc(-c3ccc4ncc(NCCN5CCCC5)nc4c3)ccc2o1 [compound 219]	–	–	–	–	< 1	< 1	< 1	< 1
CCN(CC)CCCNc1cnc2ccc(-c3ccc4oc(N)nc4c3)cc2n1 [compound 220]	–	–	–	–	< 1	< 1	< 0.1	< 0.1
Nc1nc2cc(-c3ccc4ncc(NCCCN5CCCC5)nc4c3)ccc2o1 [compound 221]	–	–	–	–	< 1	< 0.1	< 0.1	< 0.1
Nc1nc2cc(-c3ccc4ncc(NCCCN5CCOCC5)nc4c3)ccc2o1 [compound 222]	–	–	–	–	< 1	< 1	< 0.1	< 0.1
Nc1nc2cc(-c3ccc4ncc(N5CCN(C(=O)[C@H]6CCCN6)CC5)nc4c3)ccc2o1 [compound 225]	–	–	–	–	< 0.1	< 0.1	< 0.1	< 0.1
CN1CCN(C2CCN(c3cnc4ccc(-c5ccc6oc(N)nc6c5)cc4n3)CC2)CC1 [compound 227]	–	–	–	–	< 1	< 10	< 0.1	< 0.1
Nc1nc2ccc(-c3ccc4nnc(-c5ccncc5)n4c3)cc2o1 [compound 230]	–	–	–	–	< 1	< 1	< 10	< 10

SMILES	IC50 [1] [µM]	IC50 [2] [µM]	IC50 [3] [µM]	IC50 [4] [µM]	IC50 ([1]; in vitro) [µM]	IC50 ([2]; in vitro) [µM]	IC50 ([3]; in vitro) [µM]	IC50 ([4]; in vitro) [µM]
COc1nc(-c2ccc3oc(N)nc3c2)cnc1N [compound 238]	–	–	–	–	< 1	< 1	< 10	< 1
CC(Oc1nc(-c2ccc3oc(N)nc3c2)cnc1N)C(F)(F)F (stereo not drawn) [compound 239]	–	–	–	–	< 1	< 10	< 10	< 10
Nc1nc2ccc(-c3ccc4sc(N)nc4c3)cc2o1 [compound 249]	–	–	–	–	< 0.1	< 0.1	< 1	< 0.1
CC(=O)Nc1nc2cc(-c3ccc4nc(N)oc4c3)ccc2s1 [compound 251]	–	–	–	–	< 0.1	< 0.1	< 0.1	< 0.1
Nc1nc2cc(-c3ccc4ncn(CCN5CCCC5)c(=O)c4c3)ccc2o1 [compound 255]	–	–	–	–	< 10	< 10	< 10	< 10
CCN(CC)CCNC(=O)c1cnc2ccc(-c3ccc4oc(N)nc4c3)cn12 [compound 295]	–	–	–	–	< 1	< 1	< 1	< 1
CCN(CC)CCCNC(=O)c1cnc2ccc(-c3ccc4oc(N)nc4c3)cn12 [compound 302]	–	–	–	–	< 10	< 10	< 0.1	< 1
CN1CCN(CCNC(=O)c2cnc3ccc(-c4ccc5oc(N)nc5c4)cn23)CC1 [compound 306]	–	–	–	–	< 1	< 1	< 1	< 0.1
CC(=O)Nc1nc(C)c(-c2ccc3oc(N)nc3c2)s1 [compound 312]	–	–	–	–	< 10	< 0.1	< 1	< 1
Nc1nc2cc(-c3ccc4ncc(N5CC(N6CCCC6)C5)nc4c3)ccc2o1 [compound 314]	–	–	–	–	< 10	< 10	< 10	< 1
Nc1nc2cc(-c3ccc4ncc(N5CC(n6ccnc6)C5)nc4c3)ccc2o1 [compound 319]	–	–	–	–	< 1	< 1	< 10	< 0.1
Cc1ccn(C2CN(c3cnc4ccc(-c5ccc6oc(N)nc6c5)cc4n3)C2)n1 [compound 320]	–	–	–	–	< 10	< 10	< 10	< 0.1
Nc1nc2cc(-c3ccc4ncc(N5CC(N6CC[C@H](O)C6)C5)nc4c3)ccc2o1 [compound 322]	–	–	–	–	< 1	< 1	< 10	< 0.1
CN1CCN(C2CN(c3cnc4ccc(-c5ccc6oc(N)nc6c5)cc4n3)C2)CC1=O [compound 323]	–	–	–	–	< 10	< 1	< 10	< 0.1
CCN(CC)C1CN(c2cnc3ccc(-c4ccc5oc(N)nc5c4)cc3n2)C1 [compound 324]	–	–	–	–	< 10	< 1	< 10	< 0.1
Nc1nc2cc(-c3ccc4ncc(N5CC(N6CCNC(=O)C6)C5)nc4c3)ccc2o1 [compound 325]	–	–	–	–	< 1	< 0.1	< 10	< 0.1
Nc1nc2cc(-c3ccc4ncc(N5CC(N6CCNCC6)C5)nc4c3)ccc2o1 [compound 326]	–	–	–	–	< 1	< 1	< 1	< 0.1
CC(=O)N1CCN(C2CN(c3cnc4ccc(-c5ccc6oc(N)nc6c5)cc4n3)C2)CC1 [compound 327]	–	–	–	–	< 10	< 1	< 1	< 0.1
CS(=O)(=O)N1CCN(C2CN(c3cnc4ccc(-c5ccc6oc(N)nc6c5)cc4n3)C2)CC1 [compound 328]	–	–	–	–	< 10	< 10	< 10	< 0.1
